Reference: patent US10195466B2, “Method for treating skin cancer using radiation therapy” (HACKENSACK UNIVERSITY MEDICAL CENTER, priority 2014, dated 2019)

Key:
[1] = system: Human Epidermal Melanocytes (HEM); assay: Cell survival (cell count) after irradiation with or without mitochondrial inhibitors; type: cell-based; details: doses 2 Gy, 4 Gy and 8 Gy at 2,400 mu/min and 400 mu/min, compared to untreated cells, FIG. 1B
Description: Three melanoma cell lines; WC00046, WC00060 and WC00081 were used in these examples, in which WC00046 was the most aggressive cell line (metastatic stage II), WC00060 was least aggressive (stage I, primary tumor site) and WC00081 was the medium aggressive (malignant melanoma primary site), purchased from Coriell Institute of Camden, N.J. The primary HEM (human epidermal melanocytes) was purchased from ScienCell Research Laboratories of Carlsbad, Calif. (#2220). Melanoma cells were grown in RPMI (Invitrogen) with 10% FBS, 1% Penicillin/Streptomycin. […]
(§1) Melanoma cell lines WC00046, WC00060 and WC00081 (purchased from Coriell Institute of Camden, N.J.) were seeded at 5×10^5 cells in T-25 culture flasks (BD-Falcon, Franklin Lakes, N.J., Catalog #356536 or equivalent) containing either RPMI media (Invitrogen, Carlsbad, Calif., Catalog #11875119 or equivalent) with 10% fetal bovine serum (FBS; ATCC Catalog #30-2020 or equivalent), 1% Penicillin/Streptomycin (GIBCO, Carlasbad, Calif., Catalog #15140 or equivalent) or RPMI media with 10% FBS, 1% Penicillin/Streptomycin, 5 μM Oligomycin (Sigma-Aldrich, St. Louis, Mo., Catalog #04876) or RPMI media with 10% FBS, 1% Penicillin/Streptomycin, 5 μM Rotenone (Sigma-Aldrich, St. Louis, Mo., Catalog #R8875). […] Cells were counted and cell survival (%) was recorded two (2) days and seven (7) days post radiation.

melanoma cells [2] = assay: Mitotracker Red assay of mitochondrial activity in irradiated cells; type: cell-based, human; details: irradiated cells with mitochondrial respiration blocked, versus non-irradiated control (Dose 0); FIG. 2A
Description: Mitotracker Red CMXRos (Invitrogen-M7512) was used for mitotracker assay. Stock solution was prepared in anhydrous DMSO, and the aliquots were stored in −30° C. Stock solution was diluted with culture media prior to the assay. Cells were treated with Mitotracker working solution (200 nM) and incubated for 15 minutes (37° C., 5% CO2). Labeling solution was removed and cells were washed with 1×PBS followed by fixing with 2% PFA (paraformaldehyde) for 30 minutes at room temperature in dark. Cells were washed with 1×PBS and mounted using DAPI and images were taken immediately.
It is well-known that melanoma cells up-regulate mitochondrial respiration to partly overcome the damage caused by radiation treatment (Rafehi, H et al., “Clonogenic assay: adherent cells.” J. Vis. Exp. 2011 Mar. 13;(49). pii: 2573. doi: 10.3791/2573). In this study, Mitotracker® Red was used to determine mitochondrial activity in irradiated melanoma cells and HEM. Mitotracker® Red is a cell permeant mitochondrial probe that diffuses through the plasma membrane of active mitochondria and is retained there even after fixation of cells. That is, mitochondrial activity is a direct measure of the amount of fluorescent Mitotracker® Red accumulated within the mitochondria.
A Mitotracker® Red CMXRos (Invitrogen, Carlsbad, Calif., Catalog #M7512 or equivalent) assay was performed according to manufacturer's instructions. […]

[3] = system: melanoma cell lines WC00046, WC00060 and WC00081; assay: Cell survival (cell count) after irradiation with or without mitochondrial inhibitors; type: cell-based, human; details: compared to untreated cells, FIG. 1B; for cell killing of melanoma cells: inhibitor combined with high dose rate 2,400 mu/min, 5 μM in medium; for survival rates: melanoma cells, doses 2 Gy, 4 Gy and 8 Gy at 2,400 mu/min and 400 mu/min
Description: Three melanoma cell lines; WC00046, WC00060 and WC00081 were used in these examples, in which WC00046 was the most aggressive cell line (metastatic stage II), WC00060 was least aggressive (stage I, primary tumor site) and WC00081 was the medium aggressive (malignant melanoma primary site), purchased from Coriell Institute of Camden, N.J. The primary HEM (human epidermal melanocytes) was purchased from ScienCell Research Laboratories of Carlsbad, Calif. (#2220). Melanoma cells were grown in RPMI (Invitrogen) with 10% FBS, 1% Penicillin/Streptomycin. HEM cells were grown in Mel-M media (ScienCell Research Laboratories, Catalog number 2201) supplemented with 5 ML, Mel GS (ScienCell Research Laboratories, Catalog number 2252), 2.5 ML FBS (ScienCell Research Laboratories, Catalog number 0002) and 5 ML penicillin/Streptomycin solution (ScienCell Research Laboratories, Catalog number 0503), which is a complete medium designed for optimal growth of normal human dermal-derived melanocytes in vitro.
Two mitochondrial inhibitors Oligomycin (Sigma Aldrich # O4876) and Rotenone (Sigma Aldrich #R8875) were used. An optimal concentration of 0.5 uM were used for both melanoma cell lines and HEM added to the growth medium and removed after the irradiation. Dilutions were made in DMSO according to manufacturer's instructions.
as §1, with “#R8875). Human Epidermal Melanocytes (HEM) (ScienCell Research Laboratories, Carlsbad, Calif., Catalog #2220) were seeded at 5×10^5 cells in a T-25 culture flask (BD-Falcon, Franklin Lakes, N.J., Catalog #356536 or equivalent) containing either Mel-M media (ScienCell Research Laboratories, Carlsbad, Calif., Catalog #2201) or Mel-M media, 5 μM Oligomycin or Mel-M media, 5 μM Rotenone. Cells were allowed to settle and adhere to the T-25 culture flasks by overnight incubation in a humidified incubator at 37° C., 5% CO2.” for “#R8875).”

melanoma cells [4] = assay: MTT cell proliferation assay in irradiated cells; type: cell-based, human; details: seven days post-irradiation, relative to irradiation alone, FIG. 2B
Description: MTT assay was carried out to measure the cell proliferation in radiated cells. Cells were seeded in […] and incubated with MTT assay reagent (tetrazolium dye). MTT assay is based on the ability of metabolically active cells to reduce the yellow tetrazolium salt (MTT) by to form insoluble purple formazan crystals, which are solubilized by the addition of a detergent and quantified (i.e., color). The MTT Cell Proliferation Assay measures the cell proliferation rate and conversely, when metabolic events lead to apoptosis or necrosis, the reduction in cell viability. The number of assay steps has been minimized as much as possible to expedite sample processing. The MTT Reagent yields low background absorbance values in the absence of cells. For each cell type the linear relationship between cell number and signal produced is established, thus allowing an accurate quantification of changes in the rate of cell proliferation.
An MTT (tetrazolium dye) assay was performed to measure cell proliferation in irradiated melanoma cells and HEM. The MTT assay is based on the ability of metabolically active cells to reduce yellow tetrazolium salt (MTT) to insoluble purple formazan crystals. The formazan crystals are solubized in detergent and quantified by colorimetric analysis. […]

[5] = system: melanoma cells WC00046, WC00060 and WC00081; assay: Colony formation (clonogenic) assay after irradiation; type: cell-based, human; details: FIG. 4B
Description: (§2) Radiated cells were washed with 1× phosphate buffer saline (PBS), trypsinized and harvested in corning tubes (15 ml, BD Falcon). These cells were serially diluted (1:100, 1:1000, 1:10000) and plated in Petri-dishes (Tissue culture Petri dishes, BD Falcon) with complete media and allowed to grow colonies for 7-21 days. Colonies were stained with Hematoxylin for 30 min after fixing the cells in 100% ethanol for about 20-30 min. Petridishes with stained colonies were washed in water, dried overnight and counts were recorded.
(§3) The colony formation assay, or clonogenic assay, is used to determine the ability of a cell to proliferate (i.e., maintain its reproductive ability to form a colony or clone). This assay has been widely used in radiation biology to assess the effects of ionizing radiation on cells (Sadagopan, R. et al., “Characterization and clinical evaluation of a novel IMRT quality assurance system.” Journal of Applied Clinical Medical Physics 10.2 (2009)). In this study, three (3) melanoma cell lines were used to compare the effects of different radiation dose rates on cell proliferation. Melanoma cell lines were selected based on their known resistance to radiation therapy. Human epidermal melanocytes (HEM) were used to determine the effect of ionizing radiation on normal cells.
(§4) Cells were maintained and irradiated as described in Example 1. Irradiated cells were washed with 1× phosphate buffer saline (PBS) (Sigma Aldrich, St. Louis, Mo., Catalog No. P5493, or equivalent), trypsinized and harvested in 15 mL conical tubes (BD-Falcon, Franklin Lakes, N.J., Catalog #352095 or equivalent). The cells were serially diluted (1:100, 1:1000, 1:10000) and plated in Petri-dishes (BD-Falcon, Franklin Lakes, N.J., Catalog #351007 or equivalent) with the appropriate complete media and allowed to grow colonies for 7-21 days. Colonies were stained with hematoxylin (Sigma-Aldrich, St. Louis, Mo., Catalog #H9627 or equivalent) for 30 minutes after fixing the cells in 100% ethanol (VWR, Radnor, Pa., Catalog #71006-012 or equivalent) for about 20-30 minutes. Petridishes with stained colonies were washed in water, dried overnight and colony counts were recorded.

HEM = assay: as above; type: cell-based, human; details: HEM treated with mitochondrial inhibitors and irradiated; FIG. 4B
Description: as §2, §3, §4

[6] = WC00046, 2,400 mu/min, treated with mitochondrial inhibitors
[7] = WC00046, WC00060 and WC00081, 2,400 mu/min, relative to irradiation alone

Structure (SMILES) | survival rates [1] | mitochondrial activity (Mitotracker Red fluorescence) (melanoma cells [2]) | cell killing of melanoma cells [3] | survival rates [3] | cell survival (%) (melanoma cells [4]) | cell survival (%) [5, 6] [%] | cell survival (%) [5, 7] | viability and proliferation (HEM)
CC[C@H]1/C=C/C=C/C[C@@H](C)[C@H](O)[C@@](C)(O)C(=O)[C@@H](C)[C@H](O)[C@@H](C)C(=O)[C@@H](C)[C@H](O)[C@@H](C)/C=C/C(=O)O[C@@H]2[C@H](C)[C@H](CC1)O[C@]1(CC[C@H](C)[C@H](C[C@@H](C)O)O1)[C@H]2C [Oligomycin] | significantly lower survival rates | reduced below basal levels | augment the cell killing | significantly lower survival rates | further reduced | 25 | further reduced | retained viability and proliferation
C=C(C)[C@H]1Cc2c(ccc3c2O[C@@H]2COc4cc(OC)c(OC)cc4[C@@H]2C3=O)O1 [Rotenone] | significantly lower survival rates | reduced below basal levels | augment the cell killing | significantly lower survival rates | further reduced | 25 | further reduced | retained viability and proliferation
